Experimental data from patent US20080063628A1, “METHODS TO PROMOTE CELL DIFFERENTIATION” (priority 2006, published 2008).

System: early passage (P5) pancreatic-derived stromal cell line
Assay: Two high dose trichostatin A treatments (first 48 h), gene expression by RT-PCR (Example 9);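 on HNF-3 beta RT-PCR detection cycle: lower cycle number means higher gene expression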;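 on glucagon RT-PCR detection cycle: lower cycle number means higher gene expression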
Type: cell-based, human
Details: for HNF-3 beta gene expression / Insulin gene expression / Pdx-1 gene expression / glucagon gene expression: 5 μM 0-48 h + 96-120 h
Method: Several cell lines obtained from different amniotic fluid specimens (see Example 14) and pancreas donors (see Example 13) were tested with similar results. Two lines at similar passage number but derived from different amniotic fluid specimens are shown in Table VIII-A and Table VIII-B for this example. One of these cell lines was also used in examples 2 and 4 above. In addition, this example also contains comparison data in Table VIII-C and Table VIII-D for a single pancreatic-derived stromal line grown to early and late passage number.
Amniotic fluid derived cells or pancreatic-derived stromal cells were seeded into 24-well tissue culture plates at a density of 5000/cm^2 and cultured in AMNIOMAX (Invitrogen) or DMEM with 10% FBS respectively under standard cell culture conditions until confluent. After reaching confluence, amniotic fluid derived cells were treated at time 0 hours with a dose of 1.25 μM trichostatin A, and pancreatic-derived stromal cells were treated with a dose of 5.0 μM trichostatin A solubilized in DMSO and medium. At time 48 hours, cell cultures underwent a complete medium change to remove all traces of trichostatin A. At time 96 hours, cell cultures were re-fed with fresh medium and received a second dose of trichostatin A at the same concentration as used previously. At time 120 hours, cell cultures again underwent a complete medium change and were cultured for an additional 24 hours or […] total incubation time. Samples were taken for RT-PCR at the times indicated in Table IX-A to D. RNA samples were obtained daily from the start of the experiment. Culture medium was removed, and cells were washed with PBS then collected in RLT with β-mercaptoethanol (Qiagen). RNA was purified using the RNeasy Mini Kit (Qiagen) and RNA quantity and quality was determined using a spectrophotometer. cDNA was made using the iScript cDNA synthesis kit (BioRad). Human pancreas cDNA was included as a control. Results were normalized against GAPDH expression levels.
Gene expression levels of Sox17, HNF-3 beta, Pdx-1, insulin, and glucagon were analyzed in amniotic-derived cells, while expression levels of glucagon, insulin, HNF-3 beta, and Pdx-1 were analyzed in pancreas-derived cells. Samples of 20 ng cDNA was used in each Real-Time PCR reaction. RT-PCR was performed on the Applied Biosystems 7500, according to the methods described in Example 15. The data were analyzed using the accompanying software.
Real-time PCR amplifcation and quantitative analysis. Unless otherwise stated, all reagents were purchased from Applied Biosystems. Real-time PCR reactions were performed using the ABI PRISM™ 7500 Sequence Detection System. TAQMAN™ FAST UNIVERSAL PCR MASTER MIX™ (ABI, CA) was used with 20 ng of reverse transcribed RNA in a total reaction volume of 20 μl. Each cDNA sample was run in duplicate to allow correction of pipetting errors. Primers and FAM-labeled TAQMAN™ probes were used at concentrations of 200 nM. The level of expression for each target gene was normalized using the pre-developed Applied Biosystem's human glyceraldehyde-3-phosphate dehydrogenase (GAPDH) endogenous control kit. Primers and probes were designed using either ABI PRISM PRIMER EXPRESS™ software or a pre-developed ABI gene analysis kit. For each gene, either one of the primers or the probe were designed to be exon-boundary spanning. This eliminated the possibility of the primers/probe binding to any genomic DNA present. The primer and probe sets are listed as follows: Pdx-1 (Hs00426216), Insulin (Hs00355773), glucagon (Hs00174967), and FoxA2 (HNF 3-beta) (Hs00232764). The remaining primers were designed using the PRIMERS program (ABI, CA). After an initial 95° C. incubation for 20 sec, samples were cycled 40 times in two stages: a denaturation step at 95° C. for 3 sec, followed by an annealing/extension step at 60° C. for 30 sec. […]

[1] = 5.0 μM, following the second addition

SMILES: CC(/C=C/C(=O)NO)=C\[C@@H](C)C(=O)c1ccc(N(C)C)cc1 [trichostatin A]
- HNF-3 beta gene expression (24 hrs): +++ (detectable at less than 35 cycles by RT-PCR with SE less than 0.9)
- Insulin gene expression (24 hrs): nd (not detectable at >40 cycles by RT-PCR)
- Pdx-1 gene expression (24 hrs): +++ (detectable at less than 35 cycles by RT-PCR with SE less than 0.9)
- glucagon gene expression (24 hrs): +++ (detectable at less than 35 cycles by RT-PCR with SE less than 0.9)
- HNF-3 beta gene expression (48 hrs): +++ (detectable at less than 35 cycles by RT-PCR with SE less than 0.9)
- Insulin gene expression (48 hrs): nd (not detectable at >40 cycles by RT-PCR)
- Pdx-1 gene expression (48 hrs): +++ (detectable at less than 35 cycles by RT-PCR with SE less than 0.9)
- glucagon gene expression (48 hrs): +++ (detectable at less than 35 cycles by RT-PCR with SE less than 0.9)
- HNF-3 beta gene expression (72 hrs): nd (not detectable at >40 cycles by RT-PCR)
- Insulin gene expression (72 hrs): +++ (detectable at less than 35 cycles by RT-PCR with SE less than 0.9)
- Pdx-1 gene expression (72 hrs): nd (not detectable at >40 cycles by RT-PCR)
- glucagon gene expression (72 hrs): + (detectable between 35 and 40 cycles by RT-PCR)
- HNF-3 beta gene expression (96 hrs): nd (not detectable at >40 cycles by RT-PCR)
- Insulin gene expression (96 hrs): nd (not detectable at >40 cycles by RT-PCR)
- Pdx-1 gene expression (96 hrs): nd (not detectable at >40 cycles by RT-PCR)
- glucagon gene expression (96 hrs): + (detectable between 35 and 40 cycles by RT-PCR)
- HNF-3 beta gene expression (120 hrs): +++ (detectable at less than 35 cycles by RT-PCR with SE less than 0.9)
- Insulin gene expression (120 hrs): nd (not detectable at >40 cycles by RT-PCR)
- Pdx-1 gene expression (120 hrs): +++ (detectable at less than 35 cycles by RT-PCR with SE less than 0.9)
- glucagon gene expression (120 hrs): + (detectable between 35 and 40 cycles by RT-PCR)
- Pdx-1 RT-PCR detection cycle (5.0 μM, 48 hours): 32 cycles
- glucagon RT-PCR detection cycle (5.0 μM, 48 hours): 33 cycles
- glucagon RT-PCR detection cycle (5.0 μM, after trichostatin A was removed): 38 cycles
- Insulin RT-PCR detection cycle (5.0 μM, following the medium change): 33 cycles
- Pdx-1 RT-PCR detection cycle [1]: 32 cycles
- glucagon RT-PCR detection cycle [1]: 37 cycles
- glucagon RT-PCR detection cycle (5.0 μM, following treatment): 35 cycles
- HNF-3 beta RT-PCR detection cycle (5.0 μM, following treatment until removal): 34 cycles
- HNF-3 beta RT-PCR detection cycle (5.0 μM, when trichostatin A was added again): 33 cycles
